From ChEMBL document CHEMBL1149033, “Novel HIV-inhibitory halistanol sulfates F-H from a marine sponge, Pseudoaxinissa digitata” (J Nat Prod, 1994)
The source made the active and inactive calls. The calls are words filed in the database; no cut-off is given here.

How the values were obtained:
[1] = system: Human immunodeficiency virus 1; assay: Antiviral activity against HIV1 assessed as cytoprotective activity against viral-infection by NCI primary screen; type: functional, organism-based
[2] = system: Human immunodeficiency virus 2; assay: Antiviral activity against HIV2 assessed as cytoprotective activity against viral-infection by NCI primary screen; type: functional, organism-based

Row | Compound | EC50 [1] | Activity [2]
1 | CCC(C)(C)C(C)CC[C@@H](C)[C@H]1CC[C@H]2[C@@H]3C[C@H](OS(=O)(=O)[O-])[C@H]4C[C@H](OS(=O)(=O)[O-])[C@@H](OS(=O)(=O)[O-])C[C@]4(C)[C@H]3CC[C@]12C.[Na+].[Na+].[Na+] (some centres undefined) [HALISTANOL SULFATE F] | 3 µg/mL | Active
2 | CC(C)[C@@H](C)CC[C@@H](C)[C@H]1CC[C@H]2[C@@H]3C[C@H](OS(=O)(=O)[O-])[C@H]4C[C@H](OS(=O)(=O)[O-])[C@@H](OS(=O)(=O)[O-])C[C@]4(C)[C@H]3CC[C@]12C.[Na+].[Na+].[Na+] [HALISTANOL SULFATE G SODIUM] | 6 µg/mL | Active
